Measured values as given in patent publication US20250266123A1, “IN SILICO METHOD OF IDENTIFYING ALLOSTERIC HECT E3-LIGASE INHIBITORS” (Ramot at Tel-Aviv University Ltd., priority 2024, published 2025).

Experiments:
human SMURF1 promoter = assay: Human SMURF1 promoter-GFP reporter in HEK293 cells; type: cell-based; conditions: HEK293 stably transfected
Procedure: (§1) FIG. 13. (A) Screen for modulators of SMURF1 mRNA abundance in PASMCs. Human PASMCs from PAH patients were treated with agents that are associated with PAH, including cytokines, chemokines, growth factors, and small molecule pathway probes, and were cultured under hypoxic conditions to identify modulators of SMURF1 mRNA (n=2 donors). […] The human SMURF1 promoter was stably transfected into HEK293 cells upstream of a GFP sequence.

E1, E2, CAT = assay: Split-CAT system counter-checks (E1, E2, CAT activity, E. coli toxicity); type: cell-based
Procedure: (§2) Assays were performed as previously described.84,85 The selection plasmids were co-transformed into Mach1™-T1R E. coli cells. All growth assays were performed in LB agar or liquid at 37° C. Optimization of chloramphenicol (CAM) concentrations were performed according to the largest growth shift between the hyperactive mutant to the catalytic dead mutant in SMURF1 (ΔC2-K381R; ΔC2-C725A) or in E6AP (HECTd-K466R; HECTd-C820A) at each assay as previously described. The disclosers constructed a split-CAT based E3-dependent Rpn10 full length ubiquitylation cascade to monitor the effect of inhibitor and point mutations in ubiquitin E3 ligases. Specifically, yeast Rpn10 was tethered to N-CAT as a general ubiquitylation target and co-expressed with C-CAT-Ub, E1, E2 and human SMURF1235-757: wild-type DC2, K381R or catalytic dead C725A. Similarly, E6AP453-852: wild-type HECTd, K466R or catalytic dead HECTd-C820A.
(§3) To inspect ubiquitylation of BMPR2, the disclosures substituted Rpn10 with BMPR2174-558 cytosolic portion fused to the N-CAT. […] Inhibition assays were performed in liquid LB using 96 well-plate with Tecan Sunrise reader high intensity shaking for 9.5 mins rest for 10, 5 mins shake and read at 595 nm. Growth was monitored between 12-36 Hrs as indicated.

E6AP = molecular target: T1, E6AP (Homo sapiens, UniProt Q05086, K489R); assay: E. coli split-CAT E6AP reporter system; type: cell-based
T1 construct: Similarly, E6AP453-852: wild-type HECTd, K466R or catalytic dead HECTd-C820A; expressed in transfected cells; host or cells: Mach1-T1R E. coli
T1 sequence (Q05086 453-852 isoform Q05086-2 K466R): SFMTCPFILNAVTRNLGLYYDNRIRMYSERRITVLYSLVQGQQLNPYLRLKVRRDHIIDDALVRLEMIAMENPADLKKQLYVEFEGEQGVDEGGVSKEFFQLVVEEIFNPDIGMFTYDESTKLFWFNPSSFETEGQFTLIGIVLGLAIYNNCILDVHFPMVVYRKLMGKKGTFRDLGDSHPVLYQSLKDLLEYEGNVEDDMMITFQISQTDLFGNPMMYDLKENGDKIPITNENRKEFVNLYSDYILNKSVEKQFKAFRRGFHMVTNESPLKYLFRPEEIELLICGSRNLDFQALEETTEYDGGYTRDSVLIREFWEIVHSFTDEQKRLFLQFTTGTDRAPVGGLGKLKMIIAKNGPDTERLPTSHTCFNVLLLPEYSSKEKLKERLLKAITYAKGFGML
Procedure: as §2
as §3, with “indicated. […]” for “indicated.”

SMURF1 mRNA = assay: Screen for modulators of SMURF1 mRNA abundance in PASMCs; type: cell-based, human; conditions: PASMCs from PAH patients; normalized Ct values
Procedure: as §1

Compound | GFP signal (SMURF1 promoter) (human SMURF1 promoter) | Effect on E1, E2, or CAT activities (E1, E2, CAT) | Inhibition of E6AP S739L, R740G double mutant (E6AP; escape mutant, FIG. 6K) | E6AP activity (E6AP; hyperactive HECTd-K466R E6AP, FIG. 6I) | SMURF1 expression (mRNA) (SMURF1 mRNA)
CO/C1=C\C(C)=C\[C@@H](C)[C@@H](O)[C@@H](C)C/C(C)=C/C=C/[C@H](OC)[C@@H]([C@@H](C)[C@@H](O)[C@H](C)[C@@]2(O)C[C@@H](O)[C@H](C)[C@@H](C(C)C)O2)OC1=O [bafilomycin A1, reference compound] | increased GFP signal | – | – | – | –
Cc1ccc(-n2ccnc2N2CCN(C(=O)C34CC5CC(CC(C5)C3)C4)CC2)cc1 [i-27, 1-[1-(4-methylphenyl)-imidazol-2-yl]-4-[adamantane-1-carbonyl]piperazine] | – | without affecting E1, E2, or CAT activities | inhibition was reduced twofold | reduced E6AP activity in a dose-dependent manner | –
TGFβ1: transforming growth factor beta 1, agent in SMURF1 modulator screen | increased GFP signal | – | – | – | increase SMURF1 expression
